Data taken from patent EP1263429B1, “ANTIVIRAL THERAPY” (Universiteit Utrecht, priority 2000, dated 2001).

What was measured:
HXB2 = assay: IC50 of APHS for HIV-1 strains (Table 2), sensitive strain; type: cell-based; details: Human immunodeficiency virus 1, HXB2, read-out: IC50 of APHS
HIV-1Ba-L [1] = assay: HIV-1 production by chronically infected MDM, p24-core antigen ELISA; type: cell-based; details: Fig 6D; APHS added 5 days after infection, 2 days of incubation
Method: (§1) (A, B) Peripheral blood mononuclear cells (PBMC) were isolated from heparinized blood from HIV-1-, HIV-2-, and hepatitis B-seronegative donors and obtained on Ficoll-Hypaque density gradients. Cells were washed twice, stimulated with 5 µg/ml phytohemagglutinin (PHA), and cultured m RPMI-1640 medium supplemented with 5 mM Hepes, 19 mM sodium bicarbonate, 10 µg/mL gentamicin, and 10% heat-inactivated fetal calf serum (PBMC culture medium) at a concentration of 2 x 10^6 cells/ml. After 3 days of incubation stimulated PBMC were recovered from the flasks and infected for 2 hours with HIV-1Ba-L at a multiplicity of infection of 0.01. Afterwards, HIV-infected and mock-infected PBMC were washed twice to remove unbound virus. […] (B) PBMC were cultured in suspension at a concentration of 2 x 10^6 cells/ml in Teflon flasks in PBMC culture medium. […] After 2 days of incubation samples of culture supernatant were collected. p24-core antigen production was quantified using the enzyme-linked immunosorbent assay (ELISA) system of John Moore. […] (C, D) PBMC were isolated from heparinized blood from HIV-1-, HIV-2-, and hepatitis B-seronegative donors and obtained on Ficoll-Hypaque density gradients. […] After 2 days of incubation samples of culture supernatant were collected. p24-core antigen production was quantified using the enzyme-linked immunosorbent assay (ELISA) system of John Moore. […]

HIV-1Ba-L [2] = assay: HIV-1 production by chronically infected PBMC, p24-core antigen ELISA; type: cell-based; details: Fig 6B; APHS added 5 days after infection, 2 days of incubation
Method: as §1

[3] = system: Monocyte-derived macrophages (MDM); type: cell-based, human
Method: Cell viability is assessed by the MTT assay. In short, cells are incubated with MTT 3-(4,5-dimethylthiazol-2-yl)-2,5-diphenyltetrazollumbromide (Sigma) for 2 hours at 37 °C. During this time viable cells convert MTT into […] formazan dyes. Afterwards crystals are solubilised with a solution containing isopropanol. The OD of the supernatant is measured at 550 nm.
Monocyte-derived macrophages (MDM) were obtained like described above. MDM were then washed twice and cultured for 4 to 7 days in different concentrations of APHS. After a 4 days incubation period cellular viability was assessed by MTT cytotoxicity assay where viable cells convert MTT into a colored formazan dye that can be measured spectrophotometrically.
• Fig. 1 - Plasmids that are used for studies on the effect of compounds on HIV promotor activity. • Fig. 2 - Peripheral blood mononuclear cells (PBMC) were isolated from heparinized blood from HIV-1-, HIV-2-, and hepatitis B-seronegative donors and obtained on Ficoll-Hypaque density gradients. PBMC were washed twice and monocytes were purified by countercurrent centrifugal elutriation. […] After 4 and 5 days of incubation samples of culture supernatant were collected and p24-core antigen production was quantified using the enzyme-linked immunosorbent assay (ELISA) system of John Moore. […]

HIV-1 = assay: IC50 determination of an anti-viral (Table 3); type: cell-based; details: Human immunodeficiency virus 1

CCCCC#CCSc1ccccc1OC(C)=O [APHS, o-(acetoxy-phenyl)hept-2-ynyl sulphide]
IC50 (HXB2): 12.6 ± 2.3 µM
inhibition of HIV-1 production by chronically infected MDM (HIV-1Ba-L [1]): does not inhibit
inhibition of HIV-1 production of chronically infected PBMCs (HIV-1Ba-L [2]): does not inhibit
cytotoxicity (cellular viability, MTT) [3]: None of the tested concentrations of APHS was found to be cytotoxic
IC50 (HIV-1): 10 µM
